BigSolDB 2.1

CCCCc1oc2ccc(NS(C)(=O)=O)cc2c1C(=O)c1ccc(OCCCN(CCCC)CCCC)cc1.Cl
solubility (mole fraction)
Details | in ethanol | in isopropanol | in methanol | in n-butanol | in n-propanol | in water
298.15 K | 0.00418 | 0.000681 | 0.0556 | 0.00177 | 0.00275 | 2.71e-05
303.15 K | 0.00461 | 0.000838 | 0.0592 | 0.00209 | 0.00353 | 2.73e-05
308.15 K | 0.00535 | 0.00106 | 0.061 | 0.00261 | 0.00433 | 3.09e-05
313.15 K | 0.00818 | 0.00119 | 0.077 | 0.00352 | 0.00563 | 3.57e-05
318.15 K | 0.0159 | 0.00185 | 0.0919 | 0.00509 | 0.00892 | 4.49e-05
323.15 K | 0.0362 | 0.00293 | 0.119 | 0.00805 | 0.0159 | 6.11e-05
